Data on one compound can be found in patent US8835467B2, “SIR2 regulation” (Albert Einstein College of Medicine of Yeshiva University, priority 2003, dated 2014).

A value given as a limit tells only on which side of the number the result lay.

Test [1] deals with T1, Yeast SIR2p (Saccharomyces cerevisiae, UniProt P06700).
T1 construct: made in house
As to the kind of experiment: SIR2 nicotinamide base-exchange assay (p53 peptide, HPLC/14C). The test is classed as biochemical. To be noted: pH 7.6; read-out: Inhibition of exchange rate (%) yeast. As for the experimental part:
(§1) After 2 hours, aliquots of 10 μL removed at 0, 30, 60, 90 and 120 min. Each aliquot was combined with 50 μL 50 mM ammonium acetate pH 5.0 to quench and assayed by HPLC for deacetylation products and NAD^+. The chromatograms (260 nm) were obtained using 50 mM ammonium acetate pH 5.0 as eluant on a semi-preparative Waters C-18 column (2.0 mL/min flow rate). Peaks for ADPR and 3′-O-Acetyl-ADPR were quantified by integration. The peak for NAD^+ was collected and radiation counted.

Another test has as its target T2, Bacterial SIR2Af2 (Archaeoglobus fulgidus, UniProt O30124).
T2 construct: made in house
T2 sequence (O30124 1-253): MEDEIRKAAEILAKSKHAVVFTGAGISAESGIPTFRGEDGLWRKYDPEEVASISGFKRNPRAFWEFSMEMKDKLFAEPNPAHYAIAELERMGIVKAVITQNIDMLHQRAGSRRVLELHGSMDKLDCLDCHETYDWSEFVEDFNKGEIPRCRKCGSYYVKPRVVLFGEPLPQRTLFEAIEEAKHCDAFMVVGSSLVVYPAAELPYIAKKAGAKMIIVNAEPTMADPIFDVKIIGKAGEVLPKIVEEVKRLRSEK
The experiment in a line: SIR2 deacetylation assay (p53 peptide, HPLC of ADPR and 3′-O-acetyl-ADPR). The test is classed as biochemical, Archeaglobus fulgidus. As for the experimental part:
After 2 hours, aliquots of 10 μL removed at 0, 30, 60, 90 and 120 min. Each aliquot was combined with 50 μL 50 mM ammonium acetate pH 5.0 to quench and assayed by HPLC for deacetylation products and NAD^+. The chromatograms (260 nm) were obtained using 50 mM ammonium acetate pH 5.0 as eluant on a semi-preparative Waters C-18 column (2.0 mL/min flow rate). Peaks for ADPR and 3′-O-Acetyl-ADPR were quantified by integration. The peak for NAD^+ was collected and radiation counted. […] Plots of deacetylation rate versus nicotinamide were fit to the equations described in the text.
Reactions were as above but base reactions contained 5 mM of pyrazinamide, isonicotinamide, thionicotinamide, or benzamide. Reactions were carried out (2 hours for AF2 and yeast enzymes and 3 hours for mouse enzyme) at 37° C. and quenched by addition of 80 μL 50 mM ammonium acetate pH 5.0. Product formation was quantified by HPLC. Thionicotinamide-NAD^+ was synthesized by CD38. Rates were compared with controls lacking added base.

Test [2] deals with T3, Mouse SIR2 enzyme (SIR2α) (Mus musculus, UniProt Q923E4).
T3 construct: purchased Upstate Group
T3 sequence (Q923E4 1-737): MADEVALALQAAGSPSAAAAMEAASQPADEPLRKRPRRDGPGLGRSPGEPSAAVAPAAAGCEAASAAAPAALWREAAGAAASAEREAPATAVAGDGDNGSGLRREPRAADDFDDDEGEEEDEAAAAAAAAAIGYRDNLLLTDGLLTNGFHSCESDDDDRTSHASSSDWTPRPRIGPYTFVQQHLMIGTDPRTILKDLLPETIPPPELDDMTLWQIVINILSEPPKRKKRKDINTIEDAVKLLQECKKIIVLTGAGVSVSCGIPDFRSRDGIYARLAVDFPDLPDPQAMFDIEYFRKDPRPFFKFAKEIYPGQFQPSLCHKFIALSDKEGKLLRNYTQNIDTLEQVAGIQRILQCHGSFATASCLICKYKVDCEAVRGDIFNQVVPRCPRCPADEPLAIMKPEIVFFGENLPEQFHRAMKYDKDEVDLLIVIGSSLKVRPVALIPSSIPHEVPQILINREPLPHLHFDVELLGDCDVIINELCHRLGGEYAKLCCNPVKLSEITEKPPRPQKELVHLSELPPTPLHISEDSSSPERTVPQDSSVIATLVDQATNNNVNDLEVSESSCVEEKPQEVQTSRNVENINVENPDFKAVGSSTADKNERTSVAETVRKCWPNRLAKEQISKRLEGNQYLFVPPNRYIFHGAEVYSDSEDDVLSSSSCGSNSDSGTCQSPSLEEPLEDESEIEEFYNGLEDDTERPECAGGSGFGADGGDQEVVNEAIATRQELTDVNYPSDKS
Described as above. Format: biochemical. Here is the method:
as §1
(§2) Reactions were as above but base reactions contained 5 mM of pyrazinamide, isonicotinamide, thionicotinamide, or benzamide. Reactions were carried out (2 hours for AF2 and yeast enzymes and 3 hours for mouse enzyme) at 37° C. and quenched by addition of 80 μL 50 mM ammonium acetate pH 5.0. Product formation was quantified by HPLC. […] Rates were compared with controls lacking added base.

Test [3] deals with T1, Yeast SIR2p. The test is described as above. Format: biochemical. Here is the method:
as §1, §2

For a further test, the target named is Yeast Sir2 (Saccharomyces cerevisiae, UniProt P06700). As to the kind of experiment: Sir2 catalyzed deacetylation of H4 N-terminal peptide. The test is classed as biochemical. As for the experimental part:
Measurements were performed by methods described in Sauve and Schramm (2003) with the H4N-terminal peptide (AGG(AcK)GG(AcK)GMG(AcK)VGA(AcK)RHSC) (Imai et al., 2000) as substrate.

Test [4] deals with Sir2-dependent transcriptional silencing at the rDNA locus. As to the kind of experiment: rDNA locus URA3 silencing on FOA-containing media. To be noted: RDN1::URA3 strain; 25 mM isonicotinamide. Format: cell-based, yeast. Here is the method:
Ten-fold serial dilutions of yeast strains were spotted onto control (YPD) or selective media (vanLeeuwen and Gottschling, 2002). The photographs were taken after 2 to 3 days incubation. […] Isogenic strains UCC4562 (DOT1) and UCC4554 (dot1Δ) (Singer et al., 1998) are shown in each panel (top and bottom rows, respectively). […] The phenotype of strain CCFY10028 (top row) is compared to an isogenic sir2 derivative (bottom row). The sir2 deletion strain was generated by PCR-mediated gene disruption using a Nat-MX selectable marker (Tong et al., 2004).
Sir2 also localizes to the nucleolus where it functions to propagate a specialized chromatin structure on the rDNA (Rusche at al., 2003). […] Thus, isonicotinamide increases the activity of Sir2 in vivo at all three types of silent loci.

T1 sequence (P06700 whole entry): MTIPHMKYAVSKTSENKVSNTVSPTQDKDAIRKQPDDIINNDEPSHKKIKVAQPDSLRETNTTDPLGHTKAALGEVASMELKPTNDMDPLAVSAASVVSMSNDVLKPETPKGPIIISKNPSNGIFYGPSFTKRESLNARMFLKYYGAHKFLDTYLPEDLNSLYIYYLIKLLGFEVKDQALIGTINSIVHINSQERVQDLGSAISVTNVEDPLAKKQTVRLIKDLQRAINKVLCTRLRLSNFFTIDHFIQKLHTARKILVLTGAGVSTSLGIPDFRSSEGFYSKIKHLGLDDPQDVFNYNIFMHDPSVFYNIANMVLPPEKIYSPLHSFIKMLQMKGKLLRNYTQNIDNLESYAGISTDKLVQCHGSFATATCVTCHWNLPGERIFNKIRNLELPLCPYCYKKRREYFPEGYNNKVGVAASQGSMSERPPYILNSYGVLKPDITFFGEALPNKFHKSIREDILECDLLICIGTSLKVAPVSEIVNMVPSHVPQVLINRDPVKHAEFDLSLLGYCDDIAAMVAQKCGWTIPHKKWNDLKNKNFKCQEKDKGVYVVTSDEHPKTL
Yeast Sir2, sequence (P06700 whole entry): as above

As for `NC(=O)c1ccncc1` [Isonicotinamide], the inhibition at 42000 µM turned out to be 40% on Yeast SIR2p [1] and 5% against Yeast SIR2p [3] (pH 7.6). For the same compound, the values for the inhibition at 5000 µM (against Bacterial SIR2Af2; in test [2]; against Yeast SIR2p [3]) were 4%, 18% and 0%, respectively. The “increase of deacetylation activity” value on Yeast Sir2 (125 μM [carbonyl-14C]nicotinamide, increasing isonicotinamide) is reported as at most 45%. In addition, at Yeast Sir2 (isonicotinamide to 100 mM, absence of nicotinamide), the “effect on rates of deacetylation” value was “do not substantially affect rates of deacetylation”. Moreover, the “silencing at the rDNA locus (resistance to FOA)” value in test [4] is given as “increases silencing at the rDNA locus”.

Broadly, the inhibition is the change of the read-out against control, counted positive when it falls.
